“And” between values parts separate entries of the source, which are not always exact repeats. Equal values may be shown once. Read-outs that look alike come from different tables or passages of the source.

In assay [1] the test system is Tsup-1 cells. Briefly: Anti-Fas antibody-induced apoptosis of Tsup-1 cell transfectants (DNA endlabeling).
Description: Human CD4+8+3^low T lymphoblasts of the Tsup-1 line were cultured in RPMI-1640 medium (UCSF Cell Culture facility) containing 10% (v:v) fetal bovine serum (FBS), 100 U/ml of penicillin G, 100 ug/ml of streptomycin and 1 mM beta-mercaptoethanol (complete RPMI medium) at 37° C. in 5% CO2 in air. Complete RPMI medium was added to cultures every 2-3 days to maintain a density of 0.5-1×10^6 Tsup-1 cells/ml.
Briefly, after conditioning at low serum concentrations replicate suspensions of 5×10^5 Tsup-1 cells in 0.5 ml of RPMI-0.1% FBS were incubated in 24-well plastic plates (Falcon, Inc., Oxnard, Calif.) for 16 h at 37° C. in 5% CO2 in air. Some wells were precoated overnight at 4° C. with 30 ng of anti-Fas antibody (Pharmingen, Inc., San Diego, Calif.), 0.2 ug of anti-CD2 antibody (Pharmirigen, Inc., San Diego, Calif.) or a combination of 0.5 ug each of anti-CD3 antibody (Caltag Laboratories, Inc., So. San Francisco, Calif.) and anti-CD28 antibody (Bristol-Myers Squibb Pharmaceutical Research Institute, Seattle, Wash.), and in others 5 uM C6 ceramide was the stimulus for apoptosis.
Transfections of replicate suspensions of 4×10^6 cells in 2 ml of RPMI-2% FBS cultured as in Example 6 above were carried out by dropwise addition of a 250 ul preincubated mixture of 5 ug of antisense plasmid DNA, 0.2 ug of DNA of the REP 4 plasmid (InVitrogen, San Diego, Calif.) encoding hygromycin resistance and 15 ul of FuGENE 6 non-liposomal lipofection reagent (Boehringer-Mannheim Corp., Indianapolis, Ind.), incubation for 16-24 hours, and washing once and incubation in 4 ml of RPMI-10% FBS with 800 ug/ml of hygromycin for seven additional days. Then the surviving transfectants were washed and cultured in 4 ml of RPMI-0.1% FBS for 16 hours. Antisense plasmids containing full-length cDNA encoding Edg-2, -3, -4 and -5 receptors in the reverse orientation relative to promotors were constructed in the expression vectors pRc/CMV2 for Edg-2, pcDNA 3.1 for Edg-3 and Edg4 (InVitrogen, Inc., Carlsbad, Calif.) and pSV.SPORT1 for Edg-5 (GIBCO BRL, Gaithersburg, Md.) Control cells were sham-transfected with plasmids lacking these antisense inserts.
Briefly, cells from each well were pelleted at 200×g for 5 min at 4° C., resuspended in 0.5 ml of phosphate-buffered 4% formaldehyde, kept at room temperature for 10 minutes, re-pelleted, resuspended in 150 ul of 80% ethanol and immobilized and dried on poly-L-lysine precoated glass slides. Each slide was rehydrated in 20 mM Tris-130 mM NaCl (pH 7.6), and endogenous peroxidases were inactivated by treatment with 3% H2O2 in 90% methanol for 5 minutes at room temperature prior to endlabeling according to the procedures described in instructions for the Klenow-FragEL kit (Oncogene research Products-Calbiochem, Inc. La Jolla, Calif.). Percentage apoptosis was calculated from the number of Tsup-1 cells with stained nuclei of a total of 200 counted.
In assay [2] the test system is Tsup-1 cells. The following applies: cited from earlier work.
Assay [3] has as its target T1, Edg2 (Homo sapiens, UniProt Q92633).
T1 construct: the 1.1-kb cDNA coding region of human Edg2 was cleaved from Edg2/RSV (An et al., supra) and also subcloned into pCDEF3; expressed in transfected cells; host or cells: Jurkat leukemic T cells, transient transfection with Edg2/EF3 (pCDEF3 vector)
Description: SRE-luciferase reporter gene assay in Edg2-transfected Jurkat cells. Format: cell-based. The following applies: for EC50: 10-h incubation, read-out: EC50 of activation of SRE-driven reporter gene.

Assay [4] has as its system MCF-7 BCCs. Briefly: SRE-firefly luciferase reporter assay in MCF-7 BCCs. Format: cell-based, human. The conditions noted are these: for maximal increase of mean luciferase luminometric activity: 10^−10 M to 10^−6 M lipid, 4 h.
The target of assay [5] is T2, Edg4 (Homo sapiens, UniProt Q9HBW0).
T2 construct: The Edg4 protein consists of 382 amino acids with an estimated molecular weight of 42,626 daltons; expressed in transfected cells; host or cells: Jurkat leukemic T cells, transient transfection with Edg4/EF3 (pCDEF3 vector)
Description: SRE-luciferase reporter gene assay in Edg4-transfected Jurkat cells. It counts as cell-based. A general note: Reporter assays use an easily measured gene product as a stand-in for the process of interest.

Assay [6] has as its system MDA-MB-453 BCCs. Description: SRE-firefly luciferase reporter assay in MDA-MB-453 BCCs. The following applies: for mean maximal increase of luciferase luminometric activity: 10^−10 M to 10^−6 M lipid, 4 h. It counts as cell-based, human.
Assay [7] concerns MCF-7 BCC. Briefly: MCF-7 BCC secretion of IGF-II. It counts as cell-based, human.
Assay [8] deals with Edg4. Briefly: SRE-luciferase reporter gene assay in Edg4-transfected Jurkat cells. The conditions noted are these: Edg4 versus Edg2 transfectants. Format: cell-based, human.
Assay [9] relates to Jurkat cells transfected with empty pCDEF3 vector. Format: cell-based. The conditions noted are these: control Jurkat cells.
The target of assay [10] is T2, Edg4. Briefly: [3H]LPA receptor binding assay in Edg4-transfected Jurkat cells. The following applies: Edg4 transfectants. As for the experimental part:
(§1) Jurkat T cells (2×10^7 in OPTI-MEM) were transfected with 2 μg of Edg4/EF3 or empty pCDEF3 vector for 4 hours at 37° C. using Lipofectin (Life Technologies, Inc). The transfected cells were maintained in RPMI 1640 medium containing 10% fetal bovine serum for 12 hours at 37° C. and washed three times with phosphate-buffered saline (PBS) before assessment of binding. Duplicate 0.2-ml aliquots of 2×10^6 cells were incubated with 200,000 cpm of ]^3H] LPA in 0.25% bovine serum albumnin-phosphate-buffered saline binding buffer for 45 minutes at 0° C. The final concentration of [^3H]LPA in the binding incubations was 10 nM. The binding cell suspensions were passed through GFIC filters that were washed with 12 ml of ice-cold PBS containing 0.05% Tween-20, air-dried, and added to scintillation fluid for quantification of radioactivity bound to the cells. Total and nonspecific binding were evaluated in the absence and the presence of 10 μM nonradioactive LPA, respectively. Specific binding was calculated from the difference in cpm between total binding and nonspecific binding.

In assay [11] the test system is control vector-transfected Jurkat cells. Description: [3H]LPA binding in control vector-transfected Jurkat cells. As for the experimental part:
as §1

Where [12] appears, read: Edg-2 & -4 antisense pretreatment, lipid 10^−8 M.
[13] abbreviates: Sham transfectants, lipid 10^−8 M, anti-Fas alone = 100%.
The mark [14] stands for this setting: Sham transfectants, lipid 10^−9 M, anti-Fas alone = 100%.
The mark [15] stands for this setting: 1 μM lipid, Edg2-transfected Jurkat cells.
The mark [16] stands for this setting: 1 μM lipid, Edg4-transfected Jurkat cells.

T1 sequence (Q92633 whole entry): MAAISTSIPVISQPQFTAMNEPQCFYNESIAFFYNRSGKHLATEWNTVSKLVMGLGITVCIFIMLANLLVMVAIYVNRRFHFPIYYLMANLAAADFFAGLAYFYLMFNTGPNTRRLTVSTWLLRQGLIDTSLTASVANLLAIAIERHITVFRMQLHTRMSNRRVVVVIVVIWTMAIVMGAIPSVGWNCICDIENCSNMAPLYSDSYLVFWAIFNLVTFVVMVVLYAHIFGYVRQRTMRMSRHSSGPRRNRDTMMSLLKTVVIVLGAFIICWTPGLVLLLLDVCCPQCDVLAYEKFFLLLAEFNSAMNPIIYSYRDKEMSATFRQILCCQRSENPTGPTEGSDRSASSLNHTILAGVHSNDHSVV
T2 sequence (Q9HBW0 with tags, fused parts or gaps): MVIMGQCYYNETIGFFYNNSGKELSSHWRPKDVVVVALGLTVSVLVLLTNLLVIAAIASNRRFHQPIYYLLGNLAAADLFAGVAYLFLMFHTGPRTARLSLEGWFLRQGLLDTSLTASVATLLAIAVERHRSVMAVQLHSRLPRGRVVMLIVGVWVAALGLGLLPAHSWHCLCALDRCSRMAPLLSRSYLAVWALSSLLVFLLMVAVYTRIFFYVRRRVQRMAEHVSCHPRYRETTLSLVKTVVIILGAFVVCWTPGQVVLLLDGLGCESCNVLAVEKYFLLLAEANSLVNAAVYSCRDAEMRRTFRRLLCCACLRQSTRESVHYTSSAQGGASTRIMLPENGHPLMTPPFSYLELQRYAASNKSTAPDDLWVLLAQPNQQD

As to `CCCCCCCCCCCCC/C=C/[C@@H](O)[C@@H](N)COP(=O)(O)O` [S1P, sphingosine 1-phosphate], the “percentage of control apoptosis” value in assay [1] (setting [12]) is 22%; in assay [1] (Edg-3 & -5 antisense pretreatment, lipid 10^−8 M) it was 39% and 33%; in [1] (Edg-3 & -5 antisense pretreatment, lipid 10^−9 M), 53%; in [1] (setting [13]), 18%; in [1] (setting [14]) it was 30%. In addition, in assay [2], the “effect on apoptosis evoked by C6-ceramide” value was “suppressed significantly”. Besides, the “effect on apoptosis induced by anti-Fas antibody and a combination of anti-CD3 and anti-CD28 antibodies” value in assay [2] is listed as “prevent apoptosis”. Moreover, the “increase in luciferase expression” value in assay [3] and in assay [5] was “failed to generate significant increases” throughout. In addition, the “maximal increase of mean luciferase luminometric activity” value in assay [4] is at most 85 fold. In [6], the “mean maximal increase of luciferase luminometric activity” value amounted to 26 fold. Besides, the “effect on secretion of IGF-II” value in assay [7] is “Stimulation”.

Turning to lysophosphatidyl-serine, the “increase in luciferase expression” value in assay [3] (setting [15]) and in [5] (setting [16]) was “failed to generate significant increases” throughout.

Regarding `COc1cccc(-c2cc(=O)c3ccccc3o2)c1N` [MEK, 2′-amino-3′-methoxyflavone], the “percentage inhibition of the control SRE reporter response to LPA” value in [4] (10^−7 M LPA, serum-free DMEM) came out at 41%; in assay [6] (10^−7 M LPA, serum-free DMEM) it was 69%. The “percentage inhibition of the control SRE reporter response to S1P” value is listed as 37% in assay [4] (10^−7 M S1P, serum-free DMEM) and 61% in assay [6] (10^−7 M S1P, serum-free DMEM). The “inhibition of LPA- and S1P-stimulated secretion of IGF-II” value in assay [7] was “inhibited”.

With Lysophosphatidic acid [LPA], the “percentage of control apoptosis” value in assay [1] (setting [12]) was determined as 61%; in assay [1] (Edg-2 & -4 antisense pretreatment, lipid 10^−9 M), 69%; in assay [1] (setting [13]), 31%; in assay [1] (setting [14]), 51%. Moreover, the “effect on apoptosis evoked by C6-ceramide” value in assay [2] was “not”. The “effect on apoptosis induced by anti-Fas antibody and a combination of anti-CD3 and anti-CD28 antibodies” value in [2] is reported as “prevent apoptosis”. In assay [3] (Edg2-transfected Jurkat cells), the EC50 (usually the midpoint of the concentration-response curve) is about 0.01 µM. Besides, the “maximal increase of mean luciferase luminometric activity” value in [4] is “up to 37 fold”. Also, the “magnitude of evoked SRE-driven reporter activation of Edg4 relative to that of Edg2” value in assay [8] is “approximately four times higher”. Further, the “mean maximal increase of luciferase luminometric activity” value in assay [6] is on record as 24 fold. In addition, the “effect on secretion of IGF-II” value in assay [7] is reported as “Stimulation”. In addition, the “change in SRE-luciferase response” value in assay [9] is “minimal changes”. Also, the “number of LPA-binding sites (receptor density)” value in assay [10] is reported as 33,000±3200; in assay [11], 15,000±1300.

With lysophosphatidyl-choline, the “increase in luciferase expression” value in assay [3] (setting [15]) and in assay [5] (setting [16]) was “failed to generate significant increases” in each case.

lysophosphatidyl-ethanolamine: the “increase in luciferase expression” value in assay [3] (setting [15]) and in assay [5] (setting [16]) was “failed to generate significant increases” throughout.

As for phosphatidic acid [PA], the EC50 is at least 0.5 µM in assay [3] (Edg2-transfected Jurkat cells) and at least 0.5 µM in assay [5] (Edg4-transfected Jurkat cells, 10-h incubation, read-out: EC50 of activation of SRE-driven reporter gene). Besides, the “magnitude of evoked SRE-driven reporter activation of Edg4 relative to that of Edg2” value in assay [8] is given as “approximately four times higher”.

These data come from patent publication US6812335B1, “Human polypeptide receptors for lysophospholipids and sphingolipids and nucleic acids encoding the same” (The Regents of the University of California, priority 1999, dated 2004).
